The record followed here is publication PMC5218480 (PLoS ONE, 2017).

The subject of the assay is MV-4-11 cells. The assay is described as follows: Gene expression microarray analysis (Affymetrix PrimeView) and GSEA. The class given is cell-based, human. The settings on record: ProbeSet 11733831_s_at; LIST D. Further details: RFU PODN (11730768_x_at) / Fold change /veh PODN (11730768_x_at) / RFU LINC00158 (11744669_a_at) / Fold change /veh LINC00158 (11744669_a_at) / RFU DUSP10 (11751237_a_at) / Fold change /veh DUSP10 (11751237_a_at) / RFU ID3 (11757404_x_at) / Fold change /veh ID3 (11757404_x_at) / RFU PLEKHG5 (11737974_s_at) / Fold change /veh PLEKHG5 (11737974_s_at) / RFU LRRC4B (11730491_at) / Fold change /veh LRRC4B (11730491_at) / RFU GIMAP4 (11747438_a_at) / Fold change /veh GIMAP4 (11747438_a_at) / RFU KRT8 (11758183_x_at) / Fold change /veh KRT8 (11758183_x_at) / RFU CNN1 (11734310_a_at) / Fold change /veh CNN1 (11734310_a_at) / RFU VPS37D (11726825_at) / Fold change /veh VPS37D (11726825_at) / RFU C10orf10 (11716522_x_at) / Fold change /veh C10orf10 (11716522_x_at) / RFU KIR2DL2 /// KIR2DL4 /// KIR2DL5A /// KIR2DL5B /// KIR2DS1 /// KIR2DS2 /// KIR2DS3 /// KIR2DS4 /// KIR3DL3 /// KIR3DL3 /// KIR3DS1 (11738374_at) / Fold change /veh KIR2DL2 /// KIR2DL4 /// KIR2DL5A /// KIR2DL5B /// KIR2DS1 /// KIR2DS2 /// KIR2DS3 /// KIR2DS4 /// KIR3DL3 /// KIR3DL3 /// KIR3DS1 (11738374_at) / RFU C1QL1 (11718748_at) / Fold change /veh C1QL1 (11718748_at) / RFU TMPRSS4 (11747572_a_at) / Fold change /veh TMPRSS4 (11747572_a_at) / RFU HAMP (11756126_x_at) / Fold change /veh HAMP (11756126_x_at) / RFU RNFT2 (11725882_a_at) / Fold change /veh RNFT2 (11725882_a_at) / RFU NR4A2 (11747474_a_at) / Fold change /veh NR4A2 (11747474_a_at) / RFU ABCC12 (11746883_a_at) / Fold change /veh ABCC12 (11746883_a_at) / RFU TMEM136 (11760407_x_at) / Fold change /veh TMEM136 (11760407_x_at) / RFU CLDN22 /// WWC2 (11732394_at) / Fold change /veh CLDN22 /// WWC2 (11732394_at) / RFU HLA-DPB1 (11760878_x_at) / Fold change /veh HLA-DPB1 (11760878_x_at) / RFU SPINT1 (11716480_a_at) / Fold change /veh SPINT1 (11716480_a_at) / RFU GAP43 (11754022_s_at) / Fold change /veh GAP43 (11754022_s_at) / RFU A4GNT (11735810_at) / Fold change /veh A4GNT (11735810_at) / RFU PRB3 (11715151_x_at) / Fold change /veh PRB3 (11715151_x_at) / RFU TUBB4B (11761932_at) / Fold change /veh TUBB4B (11761932_at) / RFU CAPN14 (11732068_a_at) / Fold change /veh CAPN14 (11732068_a_at) / RFU TMCC2 (11721928_a_at) / Fold change /veh TMCC2 (11721928_a_at) / RFU IRGQ (11745062_a_at) / Fold change /veh IRGQ (11745062_a_at) / RFU FAM174B (11720279_a_at) / Fold change /veh FAM174B (11720279_a_at) / RFU TMPRSS4 (11748680_a_at) / Fold change /veh TMPRSS4 (11748680_a_at) / RFU FAM212B (11763350_a_at) / Fold change /veh FAM212B (11763350_a_at) / RFU PLEKHG5 (11743358_a_at) / Fold change /veh PLEKHG5 (11743358_a_at) / RFU ZSCAN30 (11745921_a_at) / Fold change /veh ZSCAN30 (11745921_a_at) / RFU CMKLR1 (11741424_a_at) / Fold change /veh CMKLR1 (11741424_a_at) / RFU LOC101060620 /// MAPK8IP1 (11723275_at) / Fold change /veh LOC101060620 /// MAPK8IP1 (11723275_at) / RFU SPTSSB (11747773_x_at) / Fold change /veh SPTSSB (11747773_x_at) / RFU PRSS12 (11739890_at) / Fold change /veh PRSS12 (11739890_at) / RFU BIN1 (11741810_x_at) / Fold change /veh BIN1 (11741810_x_at) / RFU WNT11 (11732464_a_at) / Fold change /veh WNT11 (11732464_a_at) / RFU C10orf10 (11716521_a_at) / Fold change /veh C10orf10 (11716521_a_at) / RFU C5orf56 (11738089_at) / Fold change /veh C5orf56 (11738089_at) / RFU CYB561 (11721691_x_at) / Fold change /veh CYB561 (11721691_x_at) / RFU ANKRD19P (11752326_a_at) / Fold change /veh ANKRD19P (11752326_a_at) / RFU OR2T12 /// OR2T33 /// OR2T8 (11738714_s_at) / Fold change /veh OR2T12 /// OR2T33 /// OR2T8 (11738714_s_at) / RFU VCAN (11748164_a_at) / Fold change /veh VCAN (11748164_a_at) / RFU JSRP1 (11732532_at) / Fold change /veh JSRP1 (11732532_at) / RFU KRTAP10-11 (11738290_x_at) / Fold change /veh KRTAP10-11 (11738290_x_at) / RFU MYO3A (11730013_a_at) / Fold change /veh MYO3A (11730013_a_at) / RFU EBF3 (11725865_a_at) / Fold change /veh EBF3 (11725865_a_at) / RFU CAMK2N1 (11719241_x_at) / Fold change /veh CAMK2N1 (11719241_x_at) / RFU C5orf56 (11738088_a_at) / Fold change /veh C5orf56 (11738088_a_at) / RFU OLFML3 (11715873_a_at) / Fold change /veh OLFML3 (11715873_a_at) / RFU LOC100653217 /// NTM (11731650_a_at) / Fold change /veh LOC100653217 /// NTM (11731650_a_at) / RFU MAPK11 (11762145_a_at) / Fold change /veh MAPK11 (11762145_a_at) / RFU FIZ1 (11724087_x_at) / Fold change /veh FIZ1 (11724087_x_at) / RFU OASL (11726364_x_at) / Fold change /veh OASL (11726364_x_at) / RFU SOX15 (11748057_x_at) / Fold change /veh SOX15 (11748057_x_at) / RFU CD79A (11719716_a_at) / Fold change /veh CD79A (11719716_a_at) / RFU HIST1H1D (11736915_at) / Fold change /veh HIST1H1D (11736915_at) / RFU CASKIN2 (11723855_a_at) / Fold change /veh CASKIN2 (11723855_a_at) / RFU LOC730098 (11760151_x_at) / Fold change /veh LOC730098 (11760151_x_at) / RFU OR4N2 (11742367_at) / Fold change /veh OR4N2 (11742367_at) / RFU PRRT2 (11749266_a_at) / Fold change /veh PRRT2 (11749266_a_at) / RFU SNX32 (11753110_a_at) / Fold change /veh SNX32 (11753110_a_at) / RFU CDHR5 (11726645_a_at) / Fold change /veh CDHR5 (11726645_a_at) / RFU RCAN1 (11760418_a_at) / Fold change /veh RCAN1 (11760418_a_at) / RFU FAM167A (11723789_a_at) / Fold change /veh FAM167A (11723789_a_at) / RFU FAM26E (11764081_at) / Fold change /veh FAM26E (11764081_at) / RFU ISYNA1 (11749810_s_at) / Fold change /veh ISYNA1 (11749810_s_at) / RFU ACY1 (11761880_at) / Fold change /veh ACY1 (11761880_at) / RFU 11764098_at / Fold change /veh 11764098_at / RFU SAMD14 (11745864_x_at) / Fold change /veh SAMD14 (11745864_x_at) / RFU NPB (11741838_a_at) / Fold change /veh NPB (11741838_a_at) / RFU TMPRSS6 (11731388_a_at) / Fold change /veh TMPRSS6 (11731388_a_at) / RFU KRTAP10-2 (11738614_at) / Fold change /veh KRTAP10-2 (11738614_at) / RFU ARHGAP8 /// PRR5-ARHGAP8 (11727945_x_at) / Fold change /veh ARHGAP8 /// PRR5-ARHGAP8 (11727945_x_at) / RFU KRTAP5-7 /// NADSYN1 (11734609_at) / Fold change /veh KRTAP5-7 /// NADSYN1 (11734609_at) / RFU RASL12 (11751679_a_at) / Fold change /veh RASL12 (11751679_a_at) / RFU CDKN2B (11736163_a_at) / Fold change /veh CDKN2B (11736163_a_at) / RFU PRF1 (11729649_at) / Fold change /veh PRF1 (11729649_at) / RFU, ZNF638 /// ZNF638-IT1 / Fold change vs veh, ZNF638 /// ZNF638-IT1 / RFU, PANK3 / Fold change vs veh, PANK3 / RFU, SH3YL1 / Fold change vs veh, SH3YL1 / RFU, ZEB2 / Fold change vs veh, ZEB2 / RFU, NRIP1 / Fold change vs veh, NRIP1 / RFU, PTTG1IP / Fold change vs veh, PTTG1IP / RFU, CAPN2 / Fold change vs veh, CAPN2 / RFU, MED14 / Fold change vs veh, MED14 / RFU, SNORA58 / Fold change vs veh, SNORA58 / RFU, C1orf63 / Fold change vs veh, C1orf63 / RFU, LRRFIP1 / Fold change vs veh, LRRFIP1 / RFU, NDUFAF7 / Fold change vs veh, NDUFAF7 / RFU, SLC12A2 / Fold change vs veh, SLC12A2 / RFU, IBTK / Fold change vs veh, IBTK / RFU, ESF1 / Fold change vs veh, ESF1 / Fold change vs veh, TMEM50B / RFU, TAOK1 / Fold change vs veh, TAOK1 / RFU, ACBD3 / Fold change vs veh, ACBD3 / RFU, TMA16 / Fold change vs veh, TMA16 / RFU, RWDD3 / Fold change vs veh, RWDD3 / RFU, BCAT1 / Fold change vs veh, BCAT1 / RFU, EDEM3 / Fold change vs veh, EDEM3 / RFU, TMEM33 / Fold change vs veh, TMEM33 / RFU, WDR75 / Fold change vs veh, WDR75 / RFU, AHCTF1 / Fold change vs veh, AHCTF1 / RFU, TFRC / Fold change vs veh, TFRC / RFU, ZDHHC17 / Fold change vs veh, ZDHHC17 / RFU, NOM1 / Fold change vs veh, NOM1 / RFU, ARL8B / Fold change vs veh, ARL8B / RFU, ZBTB11 / Fold change vs veh, ZBTB11 / RFU, TAMM41 / Fold change vs veh, TAMM41 / RFU, KIAA1704 /// LOC100996395 / Fold change vs veh, KIAA1704 /// LOC100996395 / RFU, ING1 / Fold change vs veh, ING1 / RFU, TRMT61B / Fold change vs veh, TRMT61B / RFU, FUBP3 / Fold change vs veh, FUBP3 / RFU, TP53 / Fold change vs veh, TP53 / RFU, TNKS2 / Fold change vs veh, TNKS2 / RFU, ZFP14 / Fold change vs veh, ZFP14 / RFU, ACTR2 / Fold change vs veh, ACTR2 / RFU, PPP3R1 / Fold change vs veh, PPP3R1 / RFU, PIK3R1 / Fold change vs veh, PIK3R1 / RFU, HNRNPA1 / Fold change vs veh, HNRNPA1 / RFU, RNF170 / Fold change vs veh, RNF170 / RFU, ZNF28 / Fold change vs veh, ZNF28 / RFU, RNGTT / Fold change vs veh, RNGTT / RFU, OGT / Fold change vs veh, OGT / RFU, BRD1 / Fold change vs veh, BRD1 / RFU, MARS / Fold change vs veh, MARS / RFU, ZNF655 / Fold change vs veh, ZNF655 / RFU, FAHD1 / Fold change vs veh, FAHD1 / RFU, BDP1 / Fold change vs veh, BDP1 / RFU, LRRCC1 / Fold change vs veh, LRRCC1 / RFU, ARID1A / Fold change vs veh, ARID1A / RFU, ZNF146 / Fold change vs veh, ZNF146 / RFU, ZNF330 / Fold change vs veh, ZNF330 / RFU, GPN3 / Fold change vs veh, GPN3 / RFU, C9orf123 / Fold change vs veh, C9orf123 / RFU, N4BP2L2 / Fold change vs veh, N4BP2L2 / RFU, ARFIP1 / Fold change vs veh, ARFIP1 / RFU, FAM179B / Fold change vs veh, FAM179B / RFU, BCL10 / Fold change vs veh, BCL10 / RFU, UHRF1BP1L / Fold change vs veh, UHRF1BP1L / RFU, BET1 / Fold change vs veh, BET1 / RFU, CNOT2 / Fold change vs veh, CNOT2 / RFU, ZNF268 / Fold change vs veh, ZNF268 / Fold change vs veh, ZNF507 / RFU, DGCR2 / Fold change vs veh, DGCR2 / RFU, WDSUB1 / Fold change vs veh, WDSUB1 / Fold change vs veh, HSP90B1 /// MIR3652 / RFU, ADSS / Fold change vs veh, ADSS / RFU, GK / Fold change vs veh, GK / RFU, ZNF148 / Fold change vs veh, ZNF148 / RFU, TAF9 / Fold change vs veh, TAF9 / RFU, SLC1A5 / Fold change vs veh, SLC1A5 / RFU, SLMO2 / Fold change vs veh, SLMO2 / RFU, ABCC4 / Fold change vs veh, ABCC4 / RFU, LOC101060439 /// RAP1B / Fold change vs veh, LOC101060439 /// RAP1B / RFU, RFX7 / Fold change vs veh, RFX7 / RFU, GTPBP10 / Fold change vs veh, GTPBP10 / RFU, CNEP1R1 / Fold change vs veh, CNEP1R1 / RFU, BIVM-ERCC5 /// ERCC5 / Fold change vs veh, BIVM-ERCC5 /// ERCC5 / RFU, ILF3 / Fold change vs veh, ILF3 / RFU 11762660_at / Fold change /veh 11762660_at / RFU VCAN (11757783_s_at) / Fold change /veh VCAN (11757783_s_at) / RFU DDX43 (11728927_at) / Fold change /veh DDX43 (11728927_at) / RFU KRT8 (11758188_x_at) / Fold change /veh KRT8 (11758188_x_at) / RFU NKD1 (11759106_at) / Fold change /veh NKD1 (11759106_at) / RFU SRD5A1 (11742802_a_at) / Fold change /veh SRD5A1 (11742802_a_at) / RFU TPSAB1 /// TPSB2 (11721975_s_at) / Fold change /veh TPSAB1 /// TPSB2 (11721975_s_at) / RFU GSTM3 (11746129_a_at) / Fold change /veh GSTM3 (11746129_a_at) / RFU IL23R (11737362_x_at) / Fold change /veh IL23R (11737362_x_at) / RFU TMEM51 (11727254_a_at) / Fold change /veh TMEM51 (11727254_a_at) / RFU PIWIL2 (11732686_x_at) / Fold change /veh PIWIL2 (11732686_x_at) / RFU ORM1 (11744905_x_at) / Fold change /veh ORM1 (11744905_x_at) / RFU CCDC152 (11743942_at) / Fold change /veh CCDC152 (11743942_at) / RFU ECM1 (11717891_a_at) / Fold change /veh ECM1 (11717891_a_at) / RFU IL23R (11748794_a_at) / Fold change /veh IL23R (11748794_a_at) / RFU TNFAIP8L3 (11732012_x_at) / Fold change /veh TNFAIP8L3 (11732012_x_at) / RFU MBOAT4 (11741988_at) / Fold change /veh MBOAT4 (11741988_at) / RFU 11764193_at / Fold change /veh 11764193_at / RFU TMEM53 (11763286_at) / Fold change /veh TMEM53 (11763286_at) / RFU MAGEB2 (11727129_at) / Fold change /veh MAGEB2 (11727129_at) / RFU TMEM200A (11744735_a_at) / Fold change /veh TMEM200A (11744735_a_at) / RFU CCDC152 (11751479_a_at) / Fold change /veh CCDC152 (11751479_a_at) / RFU FAM211A (11726209_a_at) / Fold change /veh FAM211A (11726209_a_at) / RFU RGS16 (11746705_a_at) / Fold change /veh RGS16 (11746705_a_at) / RFU VCAN (11755009_s_at) / Fold change /veh VCAN (11755009_s_at) / RFU RHOB (11743442_s_at) / Fold change /veh RHOB (11743442_s_at) / RFU RGS16 (11720943_a_at) / Fold change /veh RGS16 (11720943_a_at) / RFU RGS16 (11720944_at) / Fold change /veh RGS16 (11720944_at) / RFU, VPS4B / Fold change vs veh, VPS4B / RFU, CREB1 / Fold change vs veh, CREB1 / RFU, DNAJC13 / Fold change vs veh, DNAJC13 / RFU, GNAQ / Fold change vs veh, GNAQ / RFU, CDK5R1 / Fold change vs veh, CDK5R1 / RFU, ZRANB3 / Fold change vs veh, ZRANB3 / RFU, CUL4A / Fold change vs veh, CUL4A / RFU, CCNY / Fold change vs veh, CCNY / RFU, UFL1 / Fold change vs veh, UFL1 / RFU, COG3 / Fold change vs veh, COG3 / RFU, DIAPH2 / Fold change vs veh, DIAPH2 / RFU, SKA2 / Fold change vs veh, SKA2 / RFU, AFF3 / Fold change vs veh, AFF3 / RFU, LMF1 / Fold change vs veh, LMF1 / RFU, IPO11 / Fold change vs veh, IPO11 / RFU, DFFB / Fold change vs veh, DFFB / RFU, FOXP1 / Fold change vs veh, FOXP1 / RFU, CARD8 / Fold change vs veh, CARD8 / RFU, STRN3 / Fold change vs veh, STRN3 / RFU, ADK / Fold change vs veh, ADK / RFU, RASSF2 / Fold change vs veh, RASSF2 / RFU, WIPF1 / Fold change vs veh, WIPF1 / RFU, LARP1B / Fold change vs veh, LARP1B / RFU, RASA1 / Fold change vs veh, RASA1 / RFU, RB1 / Fold change vs veh, RB1 / RFU, PPFIA1 / Fold change vs veh, PPFIA1 / RFU, MAT2A / Fold change vs veh, MAT2A / RFU, CCT5 / Fold change vs veh, CCT5 / RFU, WDR92 / Fold change vs veh, WDR92 / RFU, CUX1 / Fold change vs veh, CUX1 / RFU, TTC7A / Fold change vs veh, TTC7A / RFU, TMEM135 / Fold change vs veh, TMEM135 / RFU, DEPTOR / Fold change vs veh, DEPTOR / RFU, CPM / Fold change vs veh, CPM / RFU, DNAJB6 / Fold change vs veh, DNAJB6 / RFU, CACNA2D3 / Fold change vs veh, CACNA2D3 / RFU, DTX4 / Fold change vs veh, DTX4 / RFU, TFCP2 / Fold change vs veh, TFCP2 / RFU, GMCL1 /// GMCL1P1 / Fold change vs veh, GMCL1 /// GMCL1P1 / RFU, AEBP2 / Fold change vs veh, AEBP2 / RFU, SNHG1 /// SNORD22 /// SNORD25 /// SNORD26 /// SNORD27 /// SNORD28 /// SNORD29 /// SNORD31 / Fold change vs veh, SNHG1 /// SNORD22 /// SNORD25 /// SNORD26 /// SNORD27 /// SNORD28 /// SNORD29 /// SNORD31 / Fold change (Aza/veh), C12orf56 (ProbeSet 11735607_a_at) / Fold change (ACY-1035/veh), C12orf56 (ProbeSet 11735607_a_at) / Fold change (Aza/veh), FGFR1OP (ProbeSet 11751329_s_at) / Fold change (ACY-1035/veh), FGFR1OP (ProbeSet 11751329_s_at) / Fold change (Aza/veh), VPS36 (ProbeSet 11739960_a_at) / Fold change (ACY-1035/veh), VPS36 (ProbeSet 11739960_a_at) / RFU SYPL1 (11715823_x_at) / Fold change /veh SYPL1 (11715823_x_at) / RFU IGFBP7 (11715501_s_at) / Fold change /veh IGFBP7 (11715501_s_at) / RFU REEP3 (11722064_at) / Fold change /veh REEP3 (11722064_at) / RFU IGLL1 (11728026_x_at) / Fold change /veh IGLL1 (11728026_x_at): dose or concentration left out as unconfirmed.

In the case of `Nc1ncn([C@@H]2O[C@H](CO)[C@@H](O)[C@H]2O)c(=O)n1` [azacitidine], the “RFU, GMCL1 /// GMCL1P1” value amounted to 32.38 RFU.
